# Read-outs that look alike come from different tables or passages of the source.
# Tests used:
# human Caco-2 cells = assay: In vitro test on human Caco-2 cells, cellular transport A to B; type: in vitro ADME; conditions: 120 minutes; for Yield (experiment yield), the drug after incubation of the prodrug / Fabs (predicted absorbed fraction in humans), the drug after incubation of the prodrug / Papp, compound measured: the prodrug itself / Yield (experiment yield), compound measured: the prodrug itself: prodrug incubated; for Yield (experiment yield), the drug after incubation of the prodrug / Fabs (predicted absorbed fraction in humans), the drug after incubation of the prodrug: corresponding drug measured; for Papp, compound measured: the prodrug itself: deposited apically at 1 or 3 μM; for Yield (experiment yield), compound measured: the prodrug itself: total amount found at the end versus incubated
# Description: (§1) The cellular transport from A to B (Apical to Basolateral) of the phosphate compounds of formula (I) and the compounds of formula (I′) (corresponding drugs) is studied in human Caco-2 cells. Each compound is deposited apically at 1 or 3 μM (in duplicate) and then incubated for 120 minutes.
# (§2) Several samples are taken during the experiment; • apically: immediately after deposition (t=0) and at 120 minutes • basolaterally: at the end of the experiment (120 minutes)
# (§3) The concentrations of the phosphate compound (prodrug) and/or of its hydroxylated homologue (drug) are determined by liquid chromatography coupled with mass spectrometric detection (LC-MS/MS). The limit of quantification for both entities is 2 ng/mL.
# (§4) The apparent permeability (Papp) and the predicted absorbed fraction (Fabs) in humans are calculated for the prodrug, for the drug after incubation of the prodrug and for the drug after incubation of the drug (Hubatsch et al, Nat Protoc. 2007; 2(9), 2111-2119).
# (§5) The experiment yield, which corresponds to the ratio (in percent) of the total amount of compound found at the end of the experiment versus that incubated, is also calculated.
# [1] = as above; type: in vitro ADME; conditions: human, Caco-2, drug incubated and measured, A to B, 1 or 3 μM, read-out: Papp, the drug after incubation of the drug
# Description: as §1, §2, §3, §4, §5
# [2] = Solubility in aqueous medium buffered to physiological pH (phosphate 0.33M, pH 7.4); type: physicochemical
# Description: The solubilities of the compounds were also measured in a medium buffered to physiological pH (cf. Table 3).
# [3] = Pharmacokinetic profile / in vivo conversion after oral administration to SCID mice (plasma, LC-MS/MS); parameters: species or system female SCID mice; conditions: aqueous formulation (1M sodium carbonate)
# Description: The pharmacokinetic profile of the phosphate compounds of formula (I) is evaluated in a lipid formulation and in aqueous solution in female SCID mice. This is compared to the pharmacokinetic profile of compounds of formula (I′) in a lipid formulation. More specifically, 4-[{[3-(6-{[(3S)-3-(morpholin-4-ylmethyl)-3,4-dihydroisoquinolin-2(1H)-yl]-carbonyl}-1,3-benzodioxol-5-yl)-5,6,7,8-tetrahydroindolizin-1-yl]carbonyl}(phenyl)-amino]phenyl disodium phosphate (also referred to as the compound of Example 1) was tested and compared to N-(4-hydroxyphenyl)-3-{6-[((3S)-3-(4-morpholinylmethyl)-3,4-dihydro-2(1H)-isoquinolinyl)carbonyl]-1,3-benzodioxol-5-yl}-N-phenyl-5,6,7,8-tetrahydro-1-indolizine carboxamide (also referred to as the drug from Example 1).
# The compound of Example 1 is prepared in a mixture of anhydrous ethanol/polyethylene glycol 300/water (10/40/50, v/v/v) intended for administration by the p.o. route. The study is carried out in 2 groups of SCID mice to which the compound of Example 1 is administered under the following conditions: • Group 1: 3 mg/kg p.o. (gavage, 10 mL/kg), • Group 2: 25 mg/kg p.o. (gavage, 10 mL/kg).
# Blood samples are taken at the following points in time (3 samples per animal and 3 animals for each point in time): 0.25 hr, 0.5 hr, 1 hr, 2 hrs, 6 hrs and 24 hrs after oral administration.
# The compound of Example 1 is also administered by the oral route in an aqueous medium to SCID mice, under the following conditions: • Group 1: 30 mg/kg p.o. dissolved in 1 mM sodium carbonate solution (gavage, 10 mL/kg), • Group 2: 100 mg/kg p.o. in water (gavage, 10 mL/kg).
# Blood samples are taken at the following points in time (3 animals for each point in time and 1 sample per animal): 0.25 hr, 0.5 hr, 1 hr, 2 hrs, 4 hrs, 6 hrs and 24 hrs after oral administration.
# For all formulations of the compound of Example 1, the blood thereby collected is centrifuged and the plasma is transferred to tubes containing 1M hydrochloric acid. The plasma concentrations of the phosphate compound (prodrug) and its hydroxylated homologue (drug) are determined simultaneously using a method of liquid chromatography coupled with mass spectrometric detection (TFC-LC-MS/MS). The limit of detection for both entities is 0.5 ng/mL.
# The drug from Example 1 is prepared in a mixture of anhydrous ethanol/polyethylene glycol 300/water (10/40/50, v/v/v) intended for administration by the p.o. route. The study is carried out in several groups of SCID mice to which the drug from Example 1 is administered under the following conditions: • Group 1: 3 mg/kg p.o. (gavage, 10 mL/kg), • Group 2: 30 mg/kg p.o. (gavage, 10 mL/kg), • Group 3: 25 mg/kg p.o. (gavage, 10 mL/kg), • Group 4: 100 mg/kg p.o. (gavage, 10 mL/kg).
# Blood samples are taken at the following points in time (3 animals for each point in time and 3 samples per animal for Groups 1-2 and 1 sample per animal for Groups 3 and 4): • p.o.: before administration and then 0.25 hr, 0.5 hr, 0.75 hr, 1 hr, 2 hrs, 4 hrs, 6 hrs, 8 hrs, 16 hrs and 24 hrs after oral administration at 3 and 30 mg/kg, • p.o.: 0.5 hr, 2 hrs, 6 hrs, 16 hrs and 24 hrs after oral administration at 25 mg/kg and 0.5 hr, 1 hr, 2 hrs, 6 hrs, 16 hrs, 30 hrs and 48 hrs after oral administration at 100 mg/kg.
# The plasma from the blood samples collected after administration of the lipid formulations of the drug from the compound of Example 1 are analysed by liquid chromatography coupled with mass spectrometric detection. The limit of quantification of the drug from the compound of Example 1 is less than or equal to 0.5 ng/mL.
# Non-compartmental pharmacokinetic analysis is carried out on the mean values of the plasma concentrations of the compounds tested. […]
# [4] = phosphate 0.33M, pH = 7.4, 10 μM
# [5] = phosphate 0.33M, pH = 7.4, 20 μM
# [6] = phosphate 0.33M, pH = 7.4, 50 μM
# [7] = phosphate 0.33M, pH = 7.4, 100 μM
# [8] = Example 20 administered 25 mg/kg p.o.
# [9] = Example 25 administered 3 mg/kg p.o.
# [10] = Example 25 administered 25 mg/kg p.o.
smiles,measurement,setting,value
"C[C@@H]1Cc2ccccc2CN1C(=O)c1cc2c(cc1-c1cc(C(=O)N(c3ccc(O)cc3)c3cnc4c(ccn4C)c3)c3ccccn13)OCO2 [Drug from Example 4, N-(4-Hydroxyphenyl)-3-(6-{[(3R)-3-methyl-3,4-dihydroisoquinolin-2(1H)-yl]carbonyl}-1,3-benzodioxol-5-yl)-N-(1-methyl-1H-pyrrolo[2,3-b]pyridin-5-yl)-indolizine-1-carboxamide]","Yield (experiment yield), the drug after incubation of the drug",human Caco-2 cells; drug incubated and measured,Yield (%) = 20
same,"Fabs (predicted absorbed fraction in humans), the drug after incubation of the drug","human Caco-2 cells; drug incubated and measured, A to B, 1 or 3 μM",Fabs (%) = 46
same,Papp A→B at 120 min,[1],0.21 ×10⁻⁶ cm/s
"[2H]C([2H])([2H])n1cc(N(C(=O)c2cc(-c3cc(Cl)ccc3C(=O)N3Cc4ccccc4C[C@H]3CN3CCOCC3)n(C)c2C)c2ccc(O)cc2)cn1 [Drug from Example 19, 5-(5-Chloro-2-{[(3S)-3-(morpholin-4-ylmethyl)-3,4-dihydroisoquinolin-2(1H)-yl]carbonyl}phenyl)-N-(4-hydroxyphenyl)-1,2-dimethyl-N-[1-(trideuteriomethyl)-1H-pyrazol-4-yl]-1H-pyrrole-3-carboxamide]",Solubility at 10 μM,[2]; [4],Soluble
same,Solubility at 20 μM,[2]; [5],Soluble
same,Solubility at 50 μM,[2]; [6],Soluble
same,Solubility at 100 μM,[2]; [7],Insoluble
"C[C@@H]1Cc2ccccc2CN1C(=O)c1cc2c(cc1-c1cc(C(=O)N(c3ccc(OP(=O)([O-])[O-])cc3)c3cnc4c(ccn4C)c3)c3ccccn13)OCO2.[Na+].[Na+] [Example 4, 4-[{[3-(6-{[(3R)-3-Methyl-3,4-dihydroisoquinolin-2(1H)-yl]carbonyl}-1,3-benzodioxol-5-yl)indolizin-1-yl]carbonyl}(1-methyl-1H-pyrrolo[2,3-b]pyridin-5-yl)amino]phenyl disodium phosphate]","Yield (experiment yield), the drug after incubation of the prodrug",human Caco-2 cells,Yield (%) = 38
same,"Fabs (predicted absorbed fraction in humans), the drug after incubation of the prodrug","human Caco-2 cells; A to B, 1 or 3 μM",Fabs (%) = 69
same,"Papp, compound measured: the prodrug itself",human Caco-2 cells; A to B,Papp (10^−6 cm/s) = 0.33
same,"Yield (experiment yield), compound measured: the prodrug itself",human Caco-2 cells,Yield (%) = 1.3
"C[C@@H]1Cc2ccccc2CN1C(=O)c1cc2c(cc1-c1cc(C(=O)N(c3ccncc3)c3ccc(OP(=O)([O-])[O-])cc3)c3ccccn13)OCO2.[Na+].[Na+] [Example 5, 4-[{[3-(6-{[(3R)-3-Methyl-3,4-dihydroisoquinolin-2(1H)-yl]carbonyl}-1,3-benzodioxol-5-yl)indolizin-1-yl]carbonyl}(pyridin-4-yl)amino]phenyl disodium phosphate]","Yield (experiment yield), the drug after incubation of the prodrug",human Caco-2 cells,Yield (%) = 78
same,"Fabs (predicted absorbed fraction in humans), the drug after incubation of the prodrug","human Caco-2 cells; A to B, 1 or 3 μM",Fabs (%) = 86
same,"Papp, compound measured: the prodrug itself",human Caco-2 cells; A to B,Papp (10^−6 cm/s) = 0.26
same,"Yield (experiment yield), compound measured: the prodrug itself",human Caco-2 cells,Yield (%) = 1.2
"[2H]C([2H])([2H])n1cc(N(C(=O)c2cc(-c3cc(Cl)ccc3C(=O)N3Cc4ccccc4C[C@H]3CN3CCOCC3)n(C)c2C)c2ccc(OP(=O)([O-])[O-])cc2)cn1.[Na+].[Na+] [Example 19, 4-({[5-(5-Chloro-2-{[(3S)-3-(morpholin-4-ylmethyl)-3,4-dihydroisoquinolin-2(1H)-yl]carbonyl}phenyl)-1,2-dimethyl-1H-pyrrol-3-yl]carbonyl}[1-(trideuteriomethyl)-1H-pyrazol-4-yl]amino)phenyl disodium phosphate]",Solubility at 10 μM,[2],Soluble
same,Solubility at 20 μM,[2],Soluble
same,Solubility at 50 μM,[2],Soluble
same,Solubility at 100 μM,[2],Soluble
"Cc1c(N(C(=O)c2cc(-c3cc(Cl)ccc3C(=O)N3Cc4ccccc4C[C@H]3CN3CCOCC3)n(C)c2C)c2ccc(OP(=O)([O-])[O-])cc2)cc(C#N)n1C.[Na+].[Na+] [Example 20, 4-[{[5-(5-Chloro-2-{[(3S)-3-(morpholin-4-ylmethyl)-3,4-dihydroisoquinolin-2(1H)-yl]carbonyl}phenyl)-1,2-dimethyl-1H-pyrrol-3-yl]carbonyl}(5-cyano-1,2-dimethyl-1H-pyrrol-3-yl)amino]phenyl disodium phosphate]","Yield (experiment yield), the drug after incubation of the prodrug",human Caco-2 cells,Yield (%) = 100
same,"Fabs (predicted absorbed fraction in humans), the drug after incubation of the prodrug","human Caco-2 cells; A to B, 1 or 3 μM",Fabs (%) = 16
same,"Yield (experiment yield), compound measured: the prodrug itself",human Caco-2 cells,Yield (%) = 0.94
same,Solubility at 10 μM,[2]; [4],Soluble
same,Solubility at 20 μM,[2]; [5],Soluble
same,Solubility at 50 μM,[2]; [6],Soluble
same,Solubility at 100 μM,[2]; [7],Soluble
same,"Cmax, compound measured: Example 20","[3]; Example 20 administered 3 mg/kg p.o., BLQ: below the limit of quantification",Cmax (ng/mL) = BLQ
same,"AUCt, compound measured: Example 20",[3]; [8],AUCt (ng · h/mL) = 106
same,"Cmax, compound measured: Example 20",[3]; [8],Cmax (ng/mL) = 127
same,"Tmax, compound measured: Example 20",[3]; [8],Tmax (h) = 0.25
"Cc1c(N(C(=O)c2cc(-c3cc(F)ccc3C(=O)N3Cc4ccccc4C[C@H]3CN3CCOCC3)n(C)c2C)c2ccc(OP(=O)([O-])[O-])cc2)cc(C#N)n1C.[Na+].[Na+] [Example 25, 4-[(5-Cyano-1,2-dimethyl-1H-pyrrol-3-yl){[5-(5-fluoro-2-{[(3S)-3-(morpholin-4-ylmethyl)-3,4-dihydroisoquinolin-2(1H)-yl]carbonyl}phenyl)-1,2-dimethyl-1H-pyrrol-3-yl]carbonyl}amino]phenyl disodium phosphate]","Yield (experiment yield), the drug after incubation of the prodrug",human Caco-2 cells,Yield (%) = 48
same,"Fabs (predicted absorbed fraction in humans), the drug after incubation of the prodrug","human Caco-2 cells; A to B, 1 or 3 μM",Fabs (%) = 20
same,"Yield (experiment yield), compound measured: the prodrug itself",human Caco-2 cells,Yield (%) = 33
same,Solubility at 10 μM,[2]; [4],Soluble
same,Solubility at 20 μM,[2]; [5],Soluble
same,Solubility at 50 μM,[2]; [6],Soluble
same,Solubility at 100 μM,[2]; [7],Soluble
same,"AUCt, compound measured: Example 25",[3]; [9],AUCt (ng · h/mL) = 14
same,"Cmax, compound measured: Example 25",[3]; [9],Cmax (ng/mL) = 17
same,"Tmax, compound measured: Example 25",[3]; [9],Tmax (h) = 1.0
same,"AUCt, compound measured: Example 25",[3]; [10],AUCt (ng · h/mL) = 114
same,"Cmax, compound measured: Example 25",[3]; [10],Cmax (ng/mL) = 106
same,"Tmax, compound measured: Example 25",[3]; [10],Tmax (h) = 1.0
